Legend:
plants = settings: cited from earlier work
[1] = system: Medicago sativa cv. Regen SY; assay: atrazine tolerance: rooting and growth of sterile cuttings on sugar-free, hormone-free B5h medium; format: in vivo; settings: untransformed control (SY) plant cuttings, Magenta boxes
Text: Under these conditions plant growth depends on photosynthesis for production of energy and carbon.

[2] = system: quinone-binding (QB) protein; settings: altered QB protein of atrazine resistant weeds; cited from earlier work

Structure (SMILES) | herbicidal activity (plants) | atrazine concentration at which cuttings did not root or grow [1] | reduced affinity of altered QB protein for atrazine [2]
CCNc1nc(NC(C)C)[nH]c(=O)n1 [hydroxyatrazine] | no herbicidal activity | – | –
CCNc1nc(Cl)nc(NC(C)C)n1 [atrazine, 2-chloro-4-ethylamino-6-isopropylamino-1,3,5-s-triazine] | – | ≥ 500 nM | 1000 fold
